Measurements from patent US20070077202A1, “Histostain composition for endoscope” (PENTAX Corporation, priority 2005, published 2007).

Columns and labels:
large intestine tissue [1] = experiment: staining test by perfusion through the heart of a mouse; format: in vivo; settings: 1 mg/mL
Procedure: A staining test was carried out with Monascus color (yellow) (1 mg/mL, 2 mL) by perfusion thereof through the heart of a mouse. […] The permeability of stain by this perfusion staining method was higher than the method in which the excised tissue is stained (Example 2) or the method in which colors are injected through the anus (Example 7). […] That is, the well-stained sites were the same as in Examples 7 and 8.
Sodium fluorescein (1 mg/mL) was also examined in the same manner as in Example 9.

large intestine tissue [2] = experiment: relative fluorescence brightness estimated from spectral sensitivity of the confocal microscope; format: in vivo, mouse; settings: same dye concentration
Procedure: That is, this function can be used for relative estimation of the fluorescence intensity of each of the samples having different brightness levels.
The fluorescence brightness of a sample with Sodium fluorescein relative to Monascus color (yellow), as calculated on the basis of such spectral sensitivity as to give the same degree of fluorescence brightness, was 0.74 times after 10 minutes or 0.84 times after 60 minutes.

mouse large intestine [3] = experiment: mouse large intestine staining test with purified xanthomonasin A, confocal image; format: in vivo; settings: 10 mg/mL saline, 100 μL, 5 minutes
Procedure: Using purified xanthomonasin A in Example 10, a mouse large intestine staining test was carried out. A mouse (ddY, 9-week-old, male) was anesthetized, and 100 μL xanthomonasin A (centrifuged and dried sample, 10 mg/mL saline) was injected via an injection needle into the large intestine lumen for staining. After 5 minutes, the mouse large intestine was excised and its confocal image was taken and observed under a confocal microscope (TCS SP2).

mouse large intestine [4] = experiment: mouse large intestine staining test with xanthomonasin A, frozen section observation; format: in vivo; settings: 10 mg/mL saline, 100 μL, 5 minutes; 6 μm frozen section
Procedure: Purified xanthomonasin A in Example 10 was used in a mouse large intestine staining test and for observing a frozen section. A mouse (ddY, 11-week-old, male) was anesthetized, and 100 μL xanthomonasin A (centrifuged and dried sample, 10 mg/mL saline) was injected via an injection needle into the large intestine lumen for staining. After 5 minutes, the mouse large intestine was excised, frozen and embedded in OCT compound, and the frozen section thus obtained was cut into thin slices each having a thickness of 6 μm. The thin slices were observed by hematoxylin-eosin staining and also observed for fluorescence by staining with xanthomonasin A.

mouse large intestine [5] = experiment: mouse large intestine staining with xanthomonasin A, excised after 1 minute and 10 minutes; format: in vivo; settings: 1 mg/mL saline, 100 μL
Procedure: Mice (ddY, 9-week-old, male) were anesthetized, and 100 μL xanthomonasin A (centrifuged and dried sample, 1 mg/mL saline) was injected via an injection needle into the large intestine lumen for staining. The mouse large intestines were excised after 1 minute and 10 minutes respectively, and the samples were observed under a confocal microscope (TCS SP2).

SMILES	staining of cell nuclei (large intestine tissue [1])	staining of cells constituting the mucosa (large intestine tissue [1])	staining of mucus components of goblet cells (large intestine tissue [1])	fluorescence brightness relative to Monascus color (yellow) (large intestine tissue [2]; after 10 minutes) [times]	fluorescence brightness relative to Monascus color (yellow) (large intestine tissue [2]; after 60 minutes) [times]	quality of sectional images (mouse large intestine [3])	staining of epithelial cells (mouse large intestine [4])	staining of muscular plate (mouse large intestine [4])	stained sites, 1 minute versus 10 minutes (mouse large intestine [5])	visibility (mouse large intestine [5]; stained for 10 minutes)
O=C([O-])c1ccccc1-c1c2ccc(=O)cc-2oc2cc([O-])ccc12.[Na+].[Na+] [Sodium fluorescein]	could not be judged	many of the cells constituting the mucosal tissue were stained well	not stained	0.74	0.84					
C/C=C/[C@]1(O)Cc2c(oc(O)c2C=O)C2=C(C(=O)CCCCC)C(=O)O[C@@]21C [xanthomonasin A]						very vivid sectional images were obtained	stained relatively excellently	excellently stained	identical in respect of stained sites	could be further improved
